Entries after “also recorded” stand apart in the source; their conditions may differ. Values belong to the molecule of their own block, whether it stands above or below them.
Assays:
Assay type in all cases: cell-based
[1] = tested on: human pulmonary artery smooth muscle cells; assay: Whole cell patch clamp of human pulmonary artery smooth muscle cells, ambient O2 vs acute hypoxia; settings: pretreatment with 100 nM
Source text: FIGS. 10A-10B show whole cell patch clamp recording of human pulmonary artery smooth muscle cells. […] The decrease is statistically significant, *, P<0.05 by Students t-test.
The hPASMCs are in primary culture and were studies by whole cell patch clamp at ambient levels of oxygen (˜21% O2) and under acute hypoxia (2% O2). Cells were studied in quasi-physiological buffers with high external concentrations of potassium using recording protocols.

[2] = target: T1, Kir2.1 channels (Homo sapiens, UniProt P63252); assay: Whole-cell patch-clamp of heterologous Kir2.1 channels in HEK293T cells under hypoxia; settings: agent in recording pipette (SENP1 2 μM)
T1 construct: expressed in transfected cells; host or cells: HEK293T
T1 sequence (P63252 1-427): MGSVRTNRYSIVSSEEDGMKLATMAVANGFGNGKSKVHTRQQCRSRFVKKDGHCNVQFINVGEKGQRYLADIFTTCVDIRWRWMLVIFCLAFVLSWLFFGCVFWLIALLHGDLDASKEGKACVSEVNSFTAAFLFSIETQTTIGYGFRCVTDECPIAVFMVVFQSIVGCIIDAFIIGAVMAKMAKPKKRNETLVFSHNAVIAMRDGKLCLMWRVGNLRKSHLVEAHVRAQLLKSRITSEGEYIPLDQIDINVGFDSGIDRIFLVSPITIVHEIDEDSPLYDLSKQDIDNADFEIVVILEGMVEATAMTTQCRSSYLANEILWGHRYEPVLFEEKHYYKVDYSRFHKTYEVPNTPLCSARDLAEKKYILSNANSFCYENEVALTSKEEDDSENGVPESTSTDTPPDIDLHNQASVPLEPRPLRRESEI
Protocol: To knockdown Kir2.1 expression, RVCMs were transduced with lentiviral particles carrying cGFP and shRNA targeting KCNJ2-mRNA for the channel. Kir2.1 knockdown cells (Kir2.1kd-CMs) were identified by expression of cGFP. Cells were studied with control pipette solution, or with pipette solutions containing purified SUMO1 (1 μM) or SENP1 (2 μM). Where indicated, the control pipette solution contained diC8 PIP2. Paired patch-clamp data were analyzed by Students t-test; ***, P<0.01. […] Kir2.1kd-CMs are identified by expression of GFP (inset, scale bar=10 μm). […] The arrow indicates the change in current-magnitude between exposure to ambient O2 and 2% O2 in the same cell. Right, Concentration-response curve showing that including diC8-PIP2 in the pipette opposes hypoxic-inhibition of IK1 in control RVCMs and RVCMs expressing the scrambled shRNA. The hypoxic-response is diminished in Kir2.1kd-CMs. Data are mean±s.d. for 7-8 cells per condition. […] Current inhibition is diminished when SENP1 is included in the recording pipette and is not observed when SUMO-insensitive Kir2.1-K49Q channels are studied. Data are mean±s.d. for 6 cells per condition.
Hypoxic-inhibition of IK1/Kir2.1 is reduced by diC8-PIP2 in a concentration-dependent manner. We have shown that adding the exogenous, soluble PIP2 analog diC8-PIP2 into the patch-pipette opposes hypoxic-inhibition of IK1 (FIG. 4). […]

[3] = target: T2, Kir2.4 (Homo sapiens, UniProt Q9UNX9); assay: Two-electrode voltage-clamp of Kir2.4 currents in Xenopus oocytes; design: expressed in transfected cells; host or cells: Xenopus oocytes (RNA injection); settings: expression of SENP1
T2 sequence (Q9UNX9 1-436): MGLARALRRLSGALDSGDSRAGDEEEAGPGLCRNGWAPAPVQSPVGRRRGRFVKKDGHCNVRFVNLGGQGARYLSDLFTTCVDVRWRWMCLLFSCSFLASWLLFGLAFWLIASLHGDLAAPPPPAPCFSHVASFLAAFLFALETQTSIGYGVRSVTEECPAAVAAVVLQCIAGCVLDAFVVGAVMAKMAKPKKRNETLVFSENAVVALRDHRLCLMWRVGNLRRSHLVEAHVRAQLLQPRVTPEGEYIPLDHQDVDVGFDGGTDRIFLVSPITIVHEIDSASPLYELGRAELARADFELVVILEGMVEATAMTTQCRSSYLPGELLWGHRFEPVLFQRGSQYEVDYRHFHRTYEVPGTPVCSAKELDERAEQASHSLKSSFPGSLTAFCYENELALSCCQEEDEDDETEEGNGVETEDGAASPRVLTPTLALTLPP
Source text: FIG. 5A discloses SEQ ID NOS 6-9, respectively, in order of appearance. […] SENP1 increases the current. […] SUMO sensitivity is transferred to Kir2.3 when the site in Kir2.1 is recreated by mutagenesis (Kir2.3-N25D).
Co-expressed SUMO decreases Kir2.4 currents in Xenopus oocytes. Using the SUMOplot algorithm to assess potential SUMOylation sites based on the canonical motif ψ-K-X-E/D, we identified the high probability SUMO site V-K54-K-D (SEQ ID NO: 4) in the N-terminal sequence of Kir2.4. SUMO covalently modifies Kir2.4 at K54 (FIG. 5) and tested the idea using two-electrode voltage-clamp (TEVC), a sensitive assay to study the regulation of Kir channels. Kir2.4 currents, assessed at −80 mV in a high K^+ (96 mM) bath solution, decreased in a dose-dependent manner with co-expression of SUMO1 (FIG. 5). Co-injection of 5 ng of human SUMO1 RNA decreased Kir2.4 currents by ˜50%. In contrast, expression of SENP1 increased Kir2.4 by ˜50%. […] The analogous sequence in Kir2.2 and Kir2.3 is V-K-K-N(SEQ ID NO: 5), which lacks the terminal aspartic acid, reduced the probability of SUMOylation from 0.93 to 0.31. Consistent with this, Kir2.3 currents were insensitive to SUMO1 and SENP1. […] This last result is consistent with a protein-protein interaction between the channel and SUMO1.

Molecule: Cc1sc(C(=O)c2cncnc2N[C@@H]2C[C@H](COS(N)(=O)=O)[C@@H](O)C2)cc1[C@@H]1NCCc2ccc(Cl)cc21 [TAK981, Subasumstat]
- effect on hypoxia-induced change of hPASMC inward current ([1]; 2% O2): prevents hypoxia induced changes; also recorded: precludes the change in the current caused by acute hypoxia
- effect on initial current in ambient O2 ([1]; ambient O2): does not alter the magnitude or the phenotype of the initial current

- effect on hypoxic inhibition of Kir2.1 channels [2]: ameliorated
- increase of Kir2.4 currents [3]: ~50%
B1: SENP1: purified deSUMOylating enzyme (SUMO specific protease) introduced via the recording pipette or expressed (protein, UniProt Q9P0U3 1-644, looked up)
Sentrin-specific protease 1: MDDIADRMRMDAGEVTLVNHNSVFKTHLLPQTGFPEDQLSLSDQQILSSRQGHLDRSFTCSTRSAAYNPSYYSDNPSSDSFLGSGDLRTFGQSANGQWRNSTPSSSSSLQKSRNSRSLYLETRKTSSGLSNSFAGKSNHHCHVSAYEKSFPIKPVPSPSWSGSCRRSLLSPKKTQRRHVSTAEETVQEEEREIYRQLLQMVTGKQFTIAKPTTHFPLHLSRCLSSSKNTLKDSLFKNGNSCASQIIGSDTSSSGSASILTNQEQLSHSVYSLSSYTPDVAFGSKDSGTLHHPHHHHSVPHQPDNLAASNTQSEGSDSVILLKVKDSQTPTPSSTFFQAELWIKELTSVYDSRARERLRQIEEQKALALQLQNQRLQEREHSVHDSVELHLRVPLEKEIPVTVVQETQKKGHKLTDSEDEFPEITEEMEKEIKNVFRNGNQDEVLSEAFRLTITRKDIQTLNHLNWLNDEIINFYMNMLMERSKEKGLPSVHAFNTFFFTKLKTAGYQAVKRWTKKVDVFSVDILLVPIHLGVHWCLAVVDFRKKNITYYDSMGGINNEACRILLQYLKQESIDKKRKEFDTNGWQLFSKKSQEIPQQMNGSDCGMFACKYADCITKDRPINFTQQHMPYFRKRMVWEILHRKLL

— patent US20240358731A1, “SUMO PATHWAY AS AN OXYGEN SENSOR RELEVANT TO THE PATHOPHYSIOLOGY OF PULMONARY ARTERY HYPERTENSION AND CARDIAC ARRHYTHMIA” (Northeastern University, priority 2023, published 2024)
